“Also recorded” adds a separate entry of the source.

The inhibition is the relative decrease from the control value, in per cent. For orientation: IC50 means the point on the concentration scale where inhibition reaches its midpoint. Lower therefore signals higher potency.

Common to all, as to assay type: biochemical
The target in assay [1] is T1, 11β-HSD1 (Homo sapiens, UniProt P28845).
T1 construct: purchased Gentest (Woburn, MA); host or cells: human liver microsomes (tissue)
The experiment in a line: 11β-HSD1 reductive activity in human liver microsomes. The procedure: Determination of 11β-HSD1 in Rat, Mouse, and Human Liver Microsomes
The reductive activity of 11β-HSD1 in rat, mouse, and human liver microsomes was measured as previously described ([Ge et al., 2005]). In short, the 11β-HSD1 activity assay tube contained 25 nM substrate, 11DHC (for rats or mice) or cortisone (for humans), spiked with 60,000 dpm of each 3H-steroid. 11β-HSD1 activity was measured using 11-DHC or cortisone as a substrate. A 25 nM steroid substrate is used because the concentration is within the physiological concentration range. Rat (10 μg), mouse (10 μg) and human (4 μg) liver microsomes were incubated with 11-ketosteroids, 0.2 mM NADPH, and various concentrations (10^−10–10^−5 M) of drug candidates at 37 °C for 60–90 min. The inhibitory ability of the chemical relative to the control (DMSO solvent) was measured. […] The reaction was stopped by adding 10 µL of 1 mM glycyrrhetinic acid and 1 ml of ice-cold ether. […] The steroids in chloroform and methanol (90:10, v/v) were chromatographically separated on a thin layer plate, and radioactivity was measured using a scanning radiometer (System AR2000, Bioscan Inc., Washington, DC, United States). The percentage of 11DHC being converted to CORT or cortisone being converted to cortisol can be calculated by dividing the radioactivity count of 11-OH-steroids by the total count. […]

The target of assay [2] is T2, 11β-HSD1 (Mus musculus, UniProt P50172).
T2 construct: from tissue; host or cells: mouse liver microsomes prepared in house (probably from Kunming mice)
In words: 11β-HSD1 reductive activity in mouse liver microsomes. Here is the method: (§1) Preparation of Rat and Mouse Liver and Kidney Microsomes
The liver and kidney microsomes were prepared as previously described ([Guo et al., 2012]). Briefly, the tissue was homogenized in […] phosphate buffered saline (PBS) containing 0.25 M sucrose, and the nuclei and large cell debris were removed by centrifugation at 1500 g for 10 min. The supernatant was transferred to a tube and the mitochondria were removed by centrifugation at 10, 000 × g for 30 min. The supernatant was transferred to an ultracentrifuge tube and centrifuged twice at 105,000 × g, the resulting microsomal precipitate was collected. The protein content was measured by the BCA kit according to the manufacturer’s instruction. The protein concentration was adjusted to 20 mg/ml. These proteins were used to measure 11β-HSD1 and 11β-HSD2 activities. […]
The reductive activity of 11β-HSD1 in rat, mouse, and human liver microsomes was measured as previously described ([Ge et al., 2005]). […] 11β-HSD1 activity was measured using 11-DHC or cortisone as a substrate. […] The inhibitory ability of the chemical relative to the control (DMSO solvent) was measured. […] The steroids in chloroform and methanol (90:10, v/v) were chromatographically separated on a thin layer plate, and radioactivity was measured using a scanning radiometer (System AR2000, Bioscan Inc., Washington, DC, United States). […]
On the technique in general: Liver microsomes are a subcellular fraction often used to study metabolism.

The target in the next assay is T3, 11β-HSD2 (Mus musculus, UniProt P51661).
T3 construct: from tissue; host or cells: mouse kidney microsomes prepared in house
T3 sequence (P51661 1-386): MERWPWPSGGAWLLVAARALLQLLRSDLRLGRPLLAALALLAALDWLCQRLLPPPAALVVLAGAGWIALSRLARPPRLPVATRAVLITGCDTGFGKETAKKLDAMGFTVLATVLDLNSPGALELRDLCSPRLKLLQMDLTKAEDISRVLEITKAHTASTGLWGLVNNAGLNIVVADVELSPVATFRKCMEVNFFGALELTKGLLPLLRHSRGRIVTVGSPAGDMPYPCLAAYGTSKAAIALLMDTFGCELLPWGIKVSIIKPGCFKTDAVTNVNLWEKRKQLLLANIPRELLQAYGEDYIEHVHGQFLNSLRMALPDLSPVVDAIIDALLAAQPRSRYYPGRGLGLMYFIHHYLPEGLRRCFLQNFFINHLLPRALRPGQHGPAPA
In words: 11β-HSD2 activity in mouse kidney microsomes. To be noted: 100 μM. Here is the method: as §1
The liver and kidney microsomes were prepared as previously described ([Guo et al., 2012]). Briefly, the tissue was homogenized in […] phosphate buffered saline (PBS) containing 0.25 M sucrose, and the nuclei and large cell debris were removed by centrifugation at 1500 g for 10 min. The supernatant was transferred to a tube and the mitochondria were removed by centrifugation at 10, 000 × g for 30 min. The supernatant was transferred to an ultracentrifuge tube and centrifuged twice at 105,000 × g, the resulting microsomal precipitate was collected. The protein content was measured by the BCA kit according to the manufacturer’s instruction. The protein concentration was adjusted to 20 mg/ml. These proteins were used to measure 11β-HSD1 and 11β-HSD2 activities.
Measurement of 11β-HSD2 Activity in Rat, Mouse, and Human Kidney Microsomes
The 11β-HSD2 assay was based on rat, mouse, and human kidney microsomes, as previously described ([Ge et al., 2005]). In brief, the 11β-HSD2 activity assay tube contained 25 nM substrate (cortisol for humans, CORT for rats and mice). […] The percentage conversion of cortisol to cortisone (humans) or CORT to 11DHC (rats and mice) was calculated by dividing the radioactive count of an 11keto-steroid product by the total count associated with both substrate and product.

T1 sequence (P28845 whole entry): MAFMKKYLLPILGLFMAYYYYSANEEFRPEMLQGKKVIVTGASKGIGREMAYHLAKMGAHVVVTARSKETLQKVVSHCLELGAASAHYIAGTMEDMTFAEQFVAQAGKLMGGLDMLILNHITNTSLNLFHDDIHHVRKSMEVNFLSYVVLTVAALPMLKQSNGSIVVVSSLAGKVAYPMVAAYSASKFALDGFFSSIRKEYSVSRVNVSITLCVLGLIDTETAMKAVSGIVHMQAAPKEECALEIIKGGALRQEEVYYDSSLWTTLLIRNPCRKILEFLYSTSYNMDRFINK
T2 sequence (P50172 whole entry): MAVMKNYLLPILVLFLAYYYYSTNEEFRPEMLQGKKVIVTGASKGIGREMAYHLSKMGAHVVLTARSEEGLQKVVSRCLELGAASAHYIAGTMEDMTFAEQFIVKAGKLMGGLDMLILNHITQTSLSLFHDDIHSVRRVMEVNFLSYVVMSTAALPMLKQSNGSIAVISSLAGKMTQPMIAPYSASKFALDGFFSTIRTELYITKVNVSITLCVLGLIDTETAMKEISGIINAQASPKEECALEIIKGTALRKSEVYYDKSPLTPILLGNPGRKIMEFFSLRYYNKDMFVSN

On to `O=C1/C(=C/c2c(F)cccc2F)CC/C1=C\c1c(F)cccc1F` [WZS08, (2E,5E)-2,5-bis(2,6-difluorobenzylidene) Cyclopentanone], for which the inhibition at 100 µM was determined as 85.4 ± 1.67% at 11β-HSD1 [1] (100 μM, initial screening, read-out: 11β-HSD1 inhibition, human enzyme) and 94.5 ± 0.97% on 11β-HSD1 [2] (100 μM, initial screening, read-out: 11β-HSD1 inhibition, mouse enzyme). In addition, the IC50 against 11β-HSD1 [1] (human liver microsomes, 25 nM cortisone, NADPH) stood at 621 nM; against 11β-HSD1 [2] (mouse liver microsomes, 25 nM 11DHC, NADPH), 244 nM. In addition, the “effect on 11β-HSD2 activity, mouse” value at 11β-HSD2 is given as “did not affect; also recorded: almost no effect”.

These data come from paper PMC8072159, “5-Bis-(2,6-difluoro-benzylidene) Cyclopentanone Acts as a Selective 11β-Hydroxysteroid Dehydrogenase one Inhibitor to Treat Diet-Induced Nonalcoholic Fatty Liver Disease in Mice” (Frontiers in Pharmacology, 2021).
